Measured values from ChEMBL document CHEMBL6092131, “Synthesis, SAR, and application of JQ1 analogs as PROTACs for cancer therapy” (Bioorg Med Chem, 2024).

Tests used:
[1] = Cytotoxicity against human HAP1 cells assessed as reduction in cell viability measured for 24 hrs by SRB assay; assay type: functional, cell-based; details: HAP1, 24 h
[2] = target: Bromodomain-containing protein 4 (Homo sapiens, UniProt O60885); assay: Binding affinity to BRD4 BD2 (unknown origin) assessed as dissociation constant by SPR assay
LNCaP = assay: Antiproliferative activity against human LNCaP cells assessed as inhibition of cell viability incubated for 48 hrs by CellTiter-Glo assay; assay type: functional, cell-based
MDA-MB-231 = assay: Antiproliferative activity against human MDA-MB-231 cells assessed as reduction in cell viability incubated for 72 hrs by MTT assay; assay type: functional, cell-based; details: MDA-MB-231, 72 h
[3] = target: Protein cereblon/CREB-binding protein (Homo sapiens, UniProt Q92793+Q96SW2); assay: PROTAC activity at CBP/CRBN in human VCaP cells assessed as protein degradation incubated for 24 hrs by Western blot analysis; assay type: cell-based
Chain of Protein cereblon/CREB-binding protein (Q92793 whole entry): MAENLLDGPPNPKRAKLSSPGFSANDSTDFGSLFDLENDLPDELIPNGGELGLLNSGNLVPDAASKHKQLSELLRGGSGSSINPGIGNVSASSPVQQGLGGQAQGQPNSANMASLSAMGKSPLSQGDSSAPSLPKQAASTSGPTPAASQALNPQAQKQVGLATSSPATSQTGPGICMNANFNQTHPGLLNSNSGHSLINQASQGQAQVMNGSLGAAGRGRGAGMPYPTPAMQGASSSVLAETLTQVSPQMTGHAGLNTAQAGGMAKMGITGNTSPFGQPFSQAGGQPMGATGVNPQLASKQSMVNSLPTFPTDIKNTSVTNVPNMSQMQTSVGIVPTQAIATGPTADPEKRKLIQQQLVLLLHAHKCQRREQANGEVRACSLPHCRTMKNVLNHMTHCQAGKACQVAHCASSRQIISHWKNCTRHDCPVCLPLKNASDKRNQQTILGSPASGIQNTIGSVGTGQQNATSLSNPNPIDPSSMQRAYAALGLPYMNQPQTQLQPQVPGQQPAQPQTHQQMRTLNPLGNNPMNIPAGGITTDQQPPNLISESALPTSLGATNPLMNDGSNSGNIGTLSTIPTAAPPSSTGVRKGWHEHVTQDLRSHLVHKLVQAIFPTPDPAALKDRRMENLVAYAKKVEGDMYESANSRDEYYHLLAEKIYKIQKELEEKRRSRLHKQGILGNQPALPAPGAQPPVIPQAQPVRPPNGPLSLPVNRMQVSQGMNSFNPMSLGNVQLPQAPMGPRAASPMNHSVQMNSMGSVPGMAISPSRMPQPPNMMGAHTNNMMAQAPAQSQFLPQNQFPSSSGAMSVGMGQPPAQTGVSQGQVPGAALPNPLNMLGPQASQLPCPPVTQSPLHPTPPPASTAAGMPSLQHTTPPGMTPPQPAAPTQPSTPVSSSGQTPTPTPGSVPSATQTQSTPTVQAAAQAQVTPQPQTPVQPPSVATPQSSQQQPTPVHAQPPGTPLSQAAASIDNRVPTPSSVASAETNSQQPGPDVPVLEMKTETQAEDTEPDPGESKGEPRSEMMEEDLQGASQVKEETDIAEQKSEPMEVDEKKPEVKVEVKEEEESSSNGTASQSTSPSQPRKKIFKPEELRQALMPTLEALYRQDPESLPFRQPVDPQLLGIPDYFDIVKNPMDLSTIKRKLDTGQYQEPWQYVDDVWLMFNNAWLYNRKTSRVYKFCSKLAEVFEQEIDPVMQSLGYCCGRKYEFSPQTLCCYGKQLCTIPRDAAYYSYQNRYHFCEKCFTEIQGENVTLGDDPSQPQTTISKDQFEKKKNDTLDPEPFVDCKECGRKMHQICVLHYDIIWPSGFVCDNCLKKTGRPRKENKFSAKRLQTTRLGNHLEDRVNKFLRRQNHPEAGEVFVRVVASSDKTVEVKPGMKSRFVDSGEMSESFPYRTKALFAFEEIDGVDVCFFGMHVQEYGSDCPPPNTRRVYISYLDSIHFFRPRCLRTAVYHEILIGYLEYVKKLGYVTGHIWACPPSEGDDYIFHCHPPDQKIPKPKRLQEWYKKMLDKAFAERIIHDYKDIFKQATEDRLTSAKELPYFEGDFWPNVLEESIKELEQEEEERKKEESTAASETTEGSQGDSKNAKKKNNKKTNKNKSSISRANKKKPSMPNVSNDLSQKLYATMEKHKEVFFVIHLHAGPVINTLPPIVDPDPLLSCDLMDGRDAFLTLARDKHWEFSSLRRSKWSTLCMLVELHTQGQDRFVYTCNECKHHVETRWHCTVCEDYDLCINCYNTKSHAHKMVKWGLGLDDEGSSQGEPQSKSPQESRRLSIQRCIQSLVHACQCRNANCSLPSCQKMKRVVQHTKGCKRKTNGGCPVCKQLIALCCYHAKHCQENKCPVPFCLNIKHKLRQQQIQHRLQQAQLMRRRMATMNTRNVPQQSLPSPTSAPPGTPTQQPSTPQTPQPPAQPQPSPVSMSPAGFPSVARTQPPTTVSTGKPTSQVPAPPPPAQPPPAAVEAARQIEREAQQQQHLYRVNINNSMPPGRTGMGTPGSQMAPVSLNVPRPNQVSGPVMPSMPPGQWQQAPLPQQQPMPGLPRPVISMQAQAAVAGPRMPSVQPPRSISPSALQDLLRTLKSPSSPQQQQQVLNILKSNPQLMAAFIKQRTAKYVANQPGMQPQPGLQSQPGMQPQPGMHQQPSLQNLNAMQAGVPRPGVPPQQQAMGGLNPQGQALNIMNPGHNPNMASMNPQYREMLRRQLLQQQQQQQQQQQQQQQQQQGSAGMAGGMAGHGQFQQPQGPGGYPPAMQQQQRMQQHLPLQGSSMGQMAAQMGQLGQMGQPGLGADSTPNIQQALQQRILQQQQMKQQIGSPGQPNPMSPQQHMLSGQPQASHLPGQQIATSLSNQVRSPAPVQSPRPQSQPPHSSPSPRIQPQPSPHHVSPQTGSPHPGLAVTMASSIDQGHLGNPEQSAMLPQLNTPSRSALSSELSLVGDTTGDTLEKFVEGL
Chain of Protein cereblon/CREB-binding protein (Q96SW2 whole entry): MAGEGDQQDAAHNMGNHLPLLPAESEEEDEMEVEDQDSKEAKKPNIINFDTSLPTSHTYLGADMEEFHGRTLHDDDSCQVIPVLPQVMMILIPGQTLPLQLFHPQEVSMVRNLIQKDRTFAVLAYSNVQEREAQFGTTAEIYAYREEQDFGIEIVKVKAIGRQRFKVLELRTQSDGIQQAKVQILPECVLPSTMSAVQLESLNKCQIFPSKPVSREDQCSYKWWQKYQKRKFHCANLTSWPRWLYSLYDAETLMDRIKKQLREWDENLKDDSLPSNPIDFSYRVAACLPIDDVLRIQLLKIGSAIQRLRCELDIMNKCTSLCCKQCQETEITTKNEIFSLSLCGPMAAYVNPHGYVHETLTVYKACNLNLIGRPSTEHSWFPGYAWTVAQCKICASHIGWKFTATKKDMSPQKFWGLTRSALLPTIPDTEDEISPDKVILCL

[4] = target: T1, Protein cereblon/Bromodomain-containing protein 4 (Homo sapiens, UniProt O60885+Q96SW2); assay: PROTAC activity at CRBN/BRD4 in human CA46 cells assessed as protein degradation incubated for 6 hrs by Western blot analysis; assay type: cell-based
T1 sequence (Q96SW2 whole entry, looked up, other chains not shown): as the sequence (Q96SW2 whole entry) above

[5] = target: T1, Protein cereblon/Bromodomain-containing protein 4; assay: PROTAC activity at CRBN/BRD4 in human NAMALVA cells assessed as protein degradation incubated for 6 hrs by Western blot analysis; assay type: cell-based
[6] = target: von Hippel-Lindau disease tumor suppressor/Bromodomain-containing protein 4 (Homo sapiens, UniProt O60885+P40337); assay: PROTAC activity at VHL/BRD4 in human HeLa cells assessed as protein degradation of BRD4 incubated for 24 hrs by Western blot analysis; assay type: cell-based
Chain of von Hippel-Lindau disease tumor suppressor/Bromodomain-containing protein 4 (P40337 whole entry, looked up, other chains not shown): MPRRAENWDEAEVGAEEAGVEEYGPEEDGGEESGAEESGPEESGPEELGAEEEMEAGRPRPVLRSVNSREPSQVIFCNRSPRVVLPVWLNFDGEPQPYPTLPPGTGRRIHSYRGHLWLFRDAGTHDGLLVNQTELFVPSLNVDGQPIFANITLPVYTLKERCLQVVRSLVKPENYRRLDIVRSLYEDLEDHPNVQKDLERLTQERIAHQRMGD

MV4-11 = assay: Cytotoxicity against human MV4-11 cells assessed as reduction in cell viability incubated for 72 hrs by cell titer glo assay; assay type: functional, cell-based; details: MV4-11, 72 h
cells = details: Homo sapiens, Triple-negative breast cancer cell
Description: Antiproliferative activity against human Triple-negative breast cancer cell

BT-549 = assay: Antiproliferative activity against human BT-549 cells assessed as reduction in cell viability; assay type: functional, cell-based

`Cc1sc2c(c1C)C(c1ccc(Cl)cc1)=N[C@@H](CC(=O)NCCCCOc1ccc(C3CC(c4ccc(Br)cc4)=NN3C(=O)CCl)cc1)c1nnc(C)n1-2` (stereo partly specified) showed an IC50 [1] of 470 nM.

With `CC(=O)N[C@H](C(=O)N1C[C@H](O)C[C@H]1C(=O)NCc1ccc(-c2scnc2C)cc1)C(C)(C)SCCCCCCNC(=O)C[C@@H]1N=C(c2ccc(Cl)cc2)c2c(sc(C)c2C)-n2c(C)nnc21` the Kd [2] was 4.4 nM.

With `CN[C@@H](C)C(=O)N[C@H](C(=O)N1CCC[C@H]1c1nc(C(=O)c2cccc(OCCOCCOCCOCCNC(=O)C[C@@H]3N=C(c4ccc(Cl)cc4)c4c(sc(C)c4C)-n4c(C)nnc43)c2)cs1)C1CCCCC1` the IC50 (LNCaP) was 77 nM.

Molecule `Cc1sc2c(c1C)C(c1ccc(Cl)cc1)=N[C@@H](CC(=O)NCCCCOc1ccc(Oc3ccc(N(Cc4ccccc4)C(=O)CCl)cc3)cc1)c1nnc(C)n1-2` has an IC50 (MDA-MB-231) of 540 nM.

For `Cc1ncsc1-c1ccc([C@H](C)NC(=O)[C@@H]2C[C@@H](O)CN2C(=O)[C@@H](NC(=O)COCCCOCCNC(=O)C[C@@H]2N=C(c3ccc(Cl)cc3)c3c(sc(C)c3C)-n3c(C)nnc32)C(C)(C)C)cc1`, the DC50 [3] was 5 nM.

For `Cc1sc2c(c1C)C(c1ccc(Cl)cc1)=N[C@@H](CC(=O)Nc1ccc(OCCOCCOCCOCCCc3cccc4c3C(=O)N(C3CCC(=O)NC3=O)C4=O)cc1)c1nnc(C)n1-2` (stereo partly specified), the DC50 [4] was under 1 nM and the DC50 [5] was under 1 nM.

Work on `Cc1ncsc1-c1ccc2c(c1)OCCOCCOC[C@@H](NC(=O)C[C@@H]1N=C(c3ccc(Cl)cc3)c3c(sc(C)c3C)-n3c(C)nnc31)COCCOCCOCC(=O)N[C@@H](C(C)(C)C)C(=O)N1C[C@H](O)C[C@H]1C(=O)NC2` yielded a DC50 [6] of 640 nM and an IC50 (MV4-11) of 300 nM.

`Cc1sc2c(c1C)C(c1ccc(Cl)cc1)=N[C@@H](CC(=O)OC(C)(C)C)c1nnc(C)n1-2` gave an IC50 (cells) of 9900 nM and an IC50 (BT-549) of 5200 nM.
